# Data published in US20150073038A1 (Marina Biotech, Inc., priority 2009, published 2015).
# Legend:
# ApoB in Hep3B cells = test: In vitro gene silencing activity, formulation with UsiRNA against ApoB in Hep3B cells, quantitative RT-PCR; assay type: cell-based; details: UsiRNA DX10008, Hep3B, 24 h
# Protocol: The methodology for determining the in vitro gene silencing activity of an activity-generating delivery molecule was as follows: Hep3B cells were transfected in triplicate, 96-well format with a formulation of the activity-generating delivery molecule and a UsiRNA against ApoB. After 24 h, cellular RNA was prepared and evaluated by quantitative RT-PCR for target ApoB and the normalizer 36B4 or GAPDH expression levels.
# The in vitro activity was generated with a UsiRNA against ApoB in Hep3B cells.
# TNS dye assay for pKa = assay type: physicochemical; details: pH 3.0 to 11.0, 30 min at 37° C.; for pKa: liposomes of the lipid with TNS dye in universal buffer, pH 3, liposome test sample, read-out: pKa as measured by TNS dye assay; for pKa as measured by TNS dye assay: liposome test sample
# Protocol: To measure pH responsive fluorescence, a TNS/Liposome reaction mixture was prepared as follows: 16 μL of TNS at 1 mg/mL (dissolved in 20% DMF), 160 μL of liposome test sample at 1 mM and 3824 μL of H20. Briefly, in a Costar 96 well plate; 100 μL/well of 2× universal buffer was added (50 mM Citrate; 40 mM sodium phosphate; 40 mM ammonium acetate; 300 mM NaCl, the 2× buffer was titrated to different pHs, at 0.5 pH increments from pH 3.0 to pH 11.0 using NaOH or HCl). To each well containing the 100 of universal buffer, 100 μL of the TNS/Liposome reaction mixture is then added to achieve a final volume of 200 μL, a TNS concentration of 5.92 μM and a final lipid concentration of 20 μM per well. After 30 min at 37° C. the fluorescence was read at an excitation wavelength of 322 nm and emission wavelength of 431 nm. The pKa was determined at the pH corresponding to the midpoint between the maximum and the minimum fluorescence intensity, utilizing sigmoidal fit software.
# TNS dye (2,6-TNS (2-(p-toluidinyl)naphthalene-6-sulfonic acid, sodium salt; Invitrogen T53; MW 335.4).
# Factor VII = test: In vivo gene-silencing dose-response, UsiRNA against Factor VII in formulation, tail-vein injection; parameters: species or system mouse; details: normal Balb/c mice, single tail-vein IV injection, serum F-VII at 48 hr post dose; dose as active UsiRNA per kg; formulated with cholesterol, C18:2-DAB-C16, DSPE-PEG2k 51:31:17:1 mole %
# Protocol: In FIG. 1 is shown a chart of the gene-silencing dose-response in vivo mouse for a UsiRNA against Factor VII administered by tail-vein injection in a formulation including the activity-generating delivery molecule C18:2-DAP(N,N-diMe)-C18:2. The calculated ED50 was 30 μg/kg. The x-axis of FIG. 1 refers to mgA/kg which is by pharmaceutical convention the mg of active UsiRNA per kg body weight. Here it refers to the fraction of UsiRNA that is duplexed, and encapsulated or carried by the activity-generating delivery molecules.
# Animals were each administered a single tail-vein IV injection, and sacrificed at 48 hr post dose for analysis of serum F-VII.
# The activity-generating molecule C18:2-DAP(N,N-diMe)-C18:2 was formulated with cholesterol, a second activity-generating molecule C18:2-DAB-C16, and DSPE-PEG2k at concentrations of 51:31:17:1 mole %, respectively.
# Factor VII mRNA = test: In vivo gene knockdown in Balb/c mice, tail-vein injection of formulation with UsiRNA; parameters: species or system mouse; details: DMPE-PEG2k 2 mole %, UsiRNA against Factor VII mRNA
# Text: In vivo gene knockdown activity was generated in Balb/c mice administered by tail-vein injection with a formulation including the activity-generating delivery molecule and a UsiRNA against Factor VII mRNA.
# [1] = DSC measurement of 2nd melting behavior; assay type: physicochemical; details: heat/cool/heat cycle
# Protocol: The 2nd melting behavior of activity-generating delivery molecules was assessed on a TA Instruments Q200 Differential Scanning calorimeter in a heat/cool/heat cycle by weighing 0.5 to 1.5 mg of the powder into an aluminum pan and heating to 175° C. at 20° C./min., cooling to −50° C. at 10° C./min., and heating to 200° C. at 20° C./min.
# Without intending to be bound by any particular theory, the melting behavior of an activity-generating delivery molecule may relate to its ability to form lamellar, bilayer, or other ordered structures which can be useful for carrying an active agent to interact with, and enter a cellular compartment to generate pharmacological or biological activity. […] A substance having less ordered structures may provide greater membrane fusion ability which can be needed for delivery of the active agent to a cell. Thus, differential scanning calorimetry can be used to distinguish the properties of compounds with certain significant thermotropic phases or transitions from compounds with different properties and less significant thermotropic phases or transitions.
# [2] = delivery molecule 25.00 mole %, CHOL 75.00 mole %
# [3] = delivery molecule 33.33 mole %, DOPE 66.66 mole %
# [4] = delivery molecule 50.00 mole %, CHOL 50.00 mole %
# [5] = delivery molecule 50.00 mole %, DOPE 50.00 mole %
# [6] = delivery molecule 66.66 mole %, CHOL 33.33 mole %
# [7] = delivery molecule 66.66 mole %, DOPE 33.33 mole %
# [8] = delivery molecule 75.00 mole %, DOPE 25.00 mole %
# [9] = delivery molecule 25.00 mole %, DOPE 75.00 mole %
# [10] = delivery molecule 33.33 mole %, CHOL 66.66 mole %
# [11] = delivery molecule 75.00 mole %, CHOL 25.00 mole %
Structure (SMILES),In vitro Gene Knockdown % (ApoB in Hep3B cells; [2]) [%],In vitro Gene Knockdown % (ApoB in Hep3B cells; [3]) [%],In vitro Gene Knockdown % (ApoB in Hep3B cells; [4]) [%],In vitro Gene Knockdown % (ApoB in Hep3B cells; [5]) [%],In vitro Gene Knockdown % (ApoB in Hep3B cells; [6]) [%],In vitro Gene Knockdown % (ApoB in Hep3B cells; [7]) [%],In vitro Gene Knockdown % (ApoB in Hep3B cells; [8]) [%],pKa (TNS dye assay for pKa),"calculated ED50, gene silencing in vivo (Factor VII) [mg/kg]",In vitro Gene Knockdown % (ApoB in Hep3B cells; [9]) [%],In vitro Gene Knockdown % (ApoB in Hep3B cells; [10]) [%],In vitro Gene Knockdown % (ApoB in Hep3B cells; [11]) [%],pKa as measured by TNS dye assay (TNS dye assay for pKa),"In vivo Gene Knockdown % (Factor VII mRNA; delivery molecule 49 mole %, CHOL 49 mole %) [%]","In vivo Gene Knockdown % (Factor VII mRNA; delivery molecule 65.3 mole %, CHOL 32.7 mole %) [%]","2nd melting behavior, thermal transitions by differential scanning calorimetry [1]"
CCCCC/C=C\C/C=C\CCCCCCCCNC(=O)C(CN(C)C)NC(=O)CCCCCCC/C=C\C/C=C\CCCCC (stereo not drawn),6,86,19,87,19,81,18,5.8,0.03,,,,,,,
"CCCCCCCC/C=C\CCCCCCCCNC(=O)C(CN)NC(=O)CCCCCCC/C=C\CCCCCCCC (stereo not drawn) [C18:1-DAP(NH3 + Cl—)-C18:1, N-(3-amino-1-((Z)-octadec-9-en-1-ylamino)-1-oxopropan-2-yl)oleamide]",83,83,73,82,76,72,77,6,,81,80,79,,,,
"CCCCC/C=C\C/C=C\CCCCCCCCNC(=O)C(N)NC(=O)CCCCCCC/C=C\C/C=C\CCCCC (stereo not drawn) [C18:2-DAA-C18:2, (9Z,12Z)—N-(1-amino-2-((9Z,12Z)-octadeca-9,12-dien-1-ylamino)-2-oxoethyl) octadeca-9,12-dienamide]",,,,,,,,4.9,,,,,,,,
"CCCCCC=CCC=CCCCCCCCC(=O)NC(CN(C)C)C(=O)NCCCCCCCCC=CCCCCCCCC (stereo not drawn) [C18:2-DAP(Me,Me)-C18:1]",90,87,88,84,91,85,84,,,86,91,,5.3,,,
"CCCCC/C=C\C/C=C\CCCCCCCCNC(=O)C(CN)NC(=O)CCCCCCC/C=C\C/C=C\CCCCC (stereo not drawn) [C18:2-DAP-C18:2, (9Z,12Z)—N-(3-amino-1-((9Z,12Z)-octadeca-9,12-dien-1-ylamino)-1-oxopropan-2-yl)octadeca-9,12-dienamide]",,,,,,,,7.6,,,,,,,,
"CCCCC/C=C\C/C=C\CCCCCCCC(=O)NC(CN)C(=O)NCCCCCCCC/C=C\CCCCCCCC (stereo not drawn) [C18:2-Dap(NH3 + Cl—)-C18:1, (9Z,12Z)—N-(3-amino-1-((Z)-octadec-9-en-1-ylamino)-1-oxopropan-2-yl)octadeca-9,12-dienamide]",64,83,56,83,61,69,48,,,85,62,52,,,,
"CCCCC/C=C\C/C=C\CCCCCCCCNC(=O)C1CC(N(C)C)CN1C(=O)CCCCCCC/C=C\C/C=C\CCCCC (stereo not drawn) [C18:2-aminoPro(N—Me,N—Me)-C18:2]",79,74,62,82,53,73,68,,,66,72,59,6.6,68,48,
"CCCCC/C=C\C/C=C\CCCCCCCCNC(=O)C(CCN)NC(=O)CCCCCCC/C=C\C/C=C\CCCCC (stereo not drawn) [C(18:2)oleoyl-DAB-C(18:2)alkenylamino, (9Z,12Z)—N-(4-amino-1-((9Z,12Z)-octadcca-9,12-dien-1-ylamino)-1-oxobutan-2-yl) octadeca-9,12-dienamide]",,,,,,,,,,,,,,,,complete lack of thermal transition peaks
"CCCCCCCCCCCCCCCCCCNC(=O)C(CCNC(=N)N)NC(=O)CCCCCCCCCCCCCCCCC (stereo not drawn) [CH3(CH2)16(CO)-norArg-NH(CH2)17CH3, reference compound]",,,,,,,,,,,,,,,,presence of significant thermal or melting transitions
